# Test system: Arabidopsis etiolated seedlings
# Experiment: Ethylene response of etiolated seedlings grown on AT plates versus AT plus ACC (root length inhibition)
# Type: in vivo, Arabidopsis thaliana
# Settings: 10 uM ACC, 5 days
# Method: (§1) Phenotypes of 5-day-old etiolated seedlings grown on AT plates in the absence or presence of 10 uM ACC. Data are presented in tabular (A) and graph (B) forms. Ethylene response of 5-day-old etiolated seedlings of WS, Col and two independent quadruple mutant isolates was quantified. Root and hypocotyl lengths of seedlings grown on AT plates versus AT plus 10 uM ACC were measured. Each data point represents the average organ length of 50 or more seedlings plus/minus standard deviation. Fold inhibition was calculated as the ratio of the average organ length in air to that in ACC.
# To overcome the redundancy problem, crosses were performed between the mutants in different EDF genes to construct double, triple and quadruple mutant combinations. Mutant genotypes were assayed by PCR. […] Importantly, the observed ethylene insensitivity was more dramatic in the quadruple mutant combinations that involved the strong edf1-1 allele (i.e. edf1-1 edf2-1 edf3-1 edf4-1 and edf1-1 edf2-2 edf3-1 edf4-1), compared to those that included the edf1-2 allele (edf1-2 edf2-1 edf3-1 edf4-1 and edf1-2 edf2-2 edf3-1 edf4-1). The weaker phenotype of the latter quadruple mutant combinations is consistent with the leaky expression of EDF1 in the edf1-2 mutant.
# as §1, with “were measured. […] Fold inhibition” for “were measured. Each data point represents the average organ length of 50 or more seedlings plus/minus standard deviation. Fold inhibition”, “in ACC. Similar, yet less dramatic, differences were detected when the hypocotyls of the quadruple and wild-type seedlings were measured.” for “in ACC.”
# Arabidopsis thaliana accession Columbia-0 was used for all overexpression studies. […] After 3–4 days in the light at 4 degrees C., the plates were wrapped in foil and kept in a 24 C incubator, after which the phenotypes of seedlings were analyzed. […]
smiles,measurement,setting,value
"NC1(C(=O)O)CC1 [ACC, 1-aminocyclopropane-1-carboxylic acid]",root length inhibition (fold; ratio of average organ length in air to that in ACC),Columbia wild-type seedlings,9.5 fold
same,root length inhibition (fold; ratio of average organ length in air to that in ACC),WS wild-type seedlings,12 fold
same,root length inhibition (fold; ratio of average organ length in air to that in ACC),quadruple mutant edf1-1 edf2-1 edf3-1 edf4-1 seedlings,less than 7 fold
